Measurements taken from article PMC5601180, “Uptake and metabolism of sulphated steroids by the blood–brain barrier in the adult male rat” (Journal of Neurochemistry, 2017).

Tested on: efflux transporters
Assay: Brain perfusion in situ with efflux transporter inhibitors co-perfused with 3H-steroid sulphate
Assay type: in vivo, rat
Details: GF120918 3 μM or MK571 50 μM co-perfused, alone or in combination; 0.5 min perfusion
Experimental: Figure 3 Effect of the efflux inhibitors GF120918 (3 μM) and MK571 (50 μM), alone or in combination, on the brain uptake of either ^3H‐dehydroepiandrosterone sulphate (DHEAS) or ^3H‐pregnenolone sulphate (PregS) after 0.5 min perfusion. […] All values mean ± SEM, n = 3. The effect of 0.5 mM of the corresponding unlabelled steroid sulphate (SS) in addition to the inhibitors is also shown. […] The inhibitors GF120918 and MK571 were dissolved in dimethylsulphoxide to a maximum final concentration of 0.8% (v/v) in the perfusate.

| Compound | effect on brain uptake of 3H-DHEAS | effect on brain uptake of 3H-PregS |
| --- | --- | --- |
| CN(C)C(=O)CCSC(SCCC(=O)O)c1cccc(/C=C/c2ccc3ccc(Cl)cc3n2)c1 (stereo not shown) [MK571, 3‐[[[3‐[(1E)‐2‐(7‐Chloro‐2‐quinolinyl)ethenyl]phenyl][[3‐(dimethylamino)‐3‐oxopropyl]thio]methyl]thio]propanoic acid] | significant decrease in uptake | significant decrease in uptake |
| COc1cc2c(cc1OC)CN(CCc1ccc(NC(=O)c3cccc4c(=O)c5cccc(OC)c5[nH]c34)cc1)CC2.Cl [GF120918, 9,10‐dihydro‐5‐methoxy‐9‐oxo‐N‐[4‐[2‐(1,2,3,4‐tetrahydro‐6,7‐dimethoxy‐2‐isoquinolinyl)ethyl]phenyl]‐4‐acridine‐carboxamide hydrochloride] | significant decrease in uptake | significant decrease in uptake |
